Assay results: article PMC9706920, “Aryloxypropanolamine targets amyloid aggregates and reverses Alzheimer-like phenotypes in Alzheimer mouse models” (Alzheimer's Research & Therapy, 2022)
Blank lines part the entries; values can stand above or below the compound they belong to.

Columns and labels:
[1] = biological target: T1, Aβ(1–42) (Homo sapiens, UniProt P05067); assay: ThT fluorescence Aβ(1–42) aggregation inhibition assay; assay type: biochemical; conditions: for Inhibition of Aβ(1–42) fibrillation (ThT fluorescence): compounds at 0.5, 5, 50, 500 μM co-incubated with monomeric Aβ(1–42) 25 μM, 37°C, 3 days, concentration of the printed value not stated
T1 construct: Synthesized monomeric Aβ(1–42), […]; […]; IA; made in house; host or cells: chemical synthesis (Fmoc solid phase peptide synthesis)
Method: (§1) ThT fluorescence was used to assess the in vitro inhibition of Aβ(1–42) and disaggregation of Aβ(1–42), Aβ(1–40), Aβ(pE3-42), recombinant tau K18, and tau repeats R1, R2, R3, R4 by YIAD compounds. In house synthetic Aβ(1–42) was dissolved in DMSO (1 mM, 100% DMSO) and diluted to 20-fold in deionized water to make 50 μM Aβ(1–42) stocks (5% DMSO). YIAD compounds were first dissolved in DMSO (100 mM, 100% DMSO) and serially diluted with deionized water to make YIAD stocks with concentrations of 1, 10, 100, and 1000 μM (10% DMSO). For the Aβ(1–42) inhibition assay, monomeric Aβ(1–42) stocks and YIAD stocks were co-incubated at 37°C for 3 days. For Aβ(1–42) disaggregation assay, monomeric Aβ(1–42) stocks were preincubated at 37°C for three days to form Aβ(1–42) aggregates, and subsequently, YIAD stocks were added for an additional 3 days. For Aβ(1-40) disaggregation assays, Aβ(1–40) (50 μM, 5% DMSO) was preincubated at 37°C for 3 days to induce aggregation, and co-incubated with YIAD001 and YIAD002 for an additional 3 days. For Aβ(pE3-42) disaggregation assays, in house synthetic Aβ(pE3-42) (50 μM, 5% DMSO) was preincubated at 37°C for 1 day and co-incubated with YIAD002 for an additional 3 days. For tau K18 disaggregation assay, recombinant tau K18 fragments (35 μM) were dissolved in PBS with 0.1 mg/mL of heparin and 100 μM of DTT, then pre-aggregated at 37°C for 3 days. Then, YIAD stocks were added to aggregated K18 fragments for an additional 3 days. For tau repeat disaggregation assays, tau repeats (R1, R2, R3, R4) (35 μM) were dissolved in PBS with 0.1 mg/mL of heparin and 100 μM of DTT, then pre-aggregated at 37°C for 1 day. Then, YIAD002 was added to aggregated repeats for an additional 3 days. Prior to fluorescence intensity measurement, ThT solution (5 μM) was prepared by dissolving ThT, purchased from Sigma-Aldrich (MO, USA) in 50 mM glycine buffer (pH 8.5). To quantify the effect of inhibition and disaggregation, 25 μL of all samples and 75 μL of ThT solution were loaded into a half-area 96-well black plate in triplicate.

[2] = tested on: 5XFAD mice; assay: 6E10 immunohistochemical staining of amyloid plaques in 5XFAD mice after oral administration; assay type: in vivo, mouse; conditions: 50 mg/kg/day via drinking water, 5 weeks, 4.5-month-old female 5XFAD mice, vs vehicle
Method: To test the in vivo efficacy of YIAD001 and YIAD002, female 5XFAD mice (n = 25) and female wildtype mice (n = 7) were assessed at the age of 4.5 months. YIAD compounds were dissolved in DMSO and diluted in drinking water to a final concentration of 50 mg/kg/day (5% DMSO, 5% Tween) for oral administration. The three compounds, YIAD001, YIAD002, and YIAD003, were freely administered via drinking water to 4.5-month-old 5XFAD mice (n = 6 for each group) for 5 weeks. As a control, 5% DMSO, 5% Tween in drinking water was provided ad libitum to littermate 5XFAD mice (n = 7) and wildtype mice (n = 7) for 5 weeks.
After the administration period, the mice were deeply anaesthetized with 4% avertin through intraperitoneal injection and transcardially perfused with 0.9% saline. Subsequently, the mice were sacrificed for brain excision. Each collected brain was divided through the mid-sagittal section; the hippocampal and cortical regions were dissected from one half and stored at −80°C for subsequent brain lysates, while the other half was immersed in 4% paraformaldehyde (pH 7.4) for 24 h and 30% sucrose for 48 h at 4°C and subsequently deep-froze at −80°C for immunohistochemistry.
Coronal hippocampal sections of 5XFAD mice brains (35 μm) were cut with a Cryostat (Leica, CM1860) and mounted onto glass slides. Antigen retrieval was performed by submerging slides in 1% SDS and unspecific binding was blocked through incubation in 20% horse serum in PBS for 1 h at RT. Aβ deposits were visualized through immunolabeling by anti-6E10 antibody (1:200 in PBS with 5% horse serum, Biolegend 803003) and detection by fluorescent secondary antibody (1:200 in PBS, IgG Alexa 488). Brain sections were additionally stained with Hoechst 33342. Fluorescent images of the brain sections were taken on a Leica DM2500 fluorescence microscope. Amyloid plaques were quantified using Image-J software (NIH).

[3] = biological target: T2, Aβ(1–42) aggregates (Homo sapiens, UniProt P05067); assay: ThT fluorescence Aβ(1–42) disaggregation assay; assay type: biochemical; conditions: for Decrease of fibrillar Aβ(1–42) aggregates (ThT fluorescence): Aβ(1–42) 25 μM pre-aggregated 37°C 3 days, compound added for additional 3 days, concentration of the printed value not stated; for EC50: pre-aggregated Aβ(1–42) 25 μM, 3 + 3 days, 37°C
T2 construct: made in house; host or cells: chemical synthesis (Fmoc solid phase peptide synthesis)
Method: as §1

[4] = BBB-PAMPA; assay type: in vitro ADME; conditions: PAMPA, pH 7.4
Method: Commercially available Double-Sink PAMPA (Pion® Double sink) assay was performed using a two compartment 96-well microtiter plate and protocols specified by the manufacturer. […] Stock solutions of controls and YIAD002 were dissolved in DMSO (10 mM) and subsequently diluted to 200-fold in pION buffer (pH 7.4) to 50 μM. The donor plate of the PAMPA sandwich was loaded with 50 μM solutions, and after wetting the artificial membrane with BBB lipid solution, the acceptor plate was loaded with acceptor sink buffer. Then, the acceptor plate was placed on the donor plate and incubated at 25°C for 4 h. Compound concentration in the reference, donor, and acceptor plates were measured on a UV plate.

T1 sequence (P05067 672-713 limits assumed): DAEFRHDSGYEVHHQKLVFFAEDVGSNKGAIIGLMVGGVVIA
T2 sequence (P05067 672-713 limits assumed): as above

melting point: 169.3 to 169.9 °C
SMILES: COc1ccc(OCC(O)CN2CCCCC2)cc1.Cl (stereo not shown)

melting point: 172.1 to 172.7 °C
SMILES: Cl.OC(COc1ccc(Br)cc1)CN1CCOCC1 (stereo not shown)

melting point: 178.1 to 178.6 °C
SMILES: Cl.OC(COc1ccc(Br)cc1)CN1CCCCC1 (stereo not shown)

melting point: 176.9 to 177.7 °C
SMILES: Cl.OC(COc1ccc(Br)cc1)CN1CCCC1 (stereo not shown)

melting point: 197.9 to 198.3 °C
SMILES: CC(C)(C)c1ccc(OCC(O)CN2CCOCC2)cc1.Cl (stereo not shown)

SMILES: COc1ccc(OCC(O)CN2CCOCC2)cc1.Cl (stereo not shown) [YIAD003, 4-(2-Hydroxy-3-(4-methoxyphenoxy)propyl)morpholin-4-ium chloride]
Activity in anti-Aβ screen ([1]; inhibitory interaction with Aβ(1–42) aggregation): inactive
Number of 6E10-stained plaques [2]: did not cause any change
Plaque area [2]: slight tendency of an increase
melting point: 160.2 to 160.5 °C

SMILES: CC(C)(C)c1ccc(OCC(O)CN2CCCCC2)cc1.Cl (stereo not shown) [YIAD008, 1-(3-(4-(Tert-butyl)phenoxy)-2-hydroxypropyl)piperidin-1-ium chloride]
Inhibition of Aβ(1–42) fibrillation (ThT fluorescence) [1]: 70.69%
Decrease of fibrillar Aβ(1–42) aggregates (ThT fluorescence) [3]: 59.89%
EC50 [3]: 360 µM
melting point: 201.7 to 202.2 °C

SMILES: CC(C)(C)c1ccc(OCC(O)CN2CCCC2)cc1.Cl (stereo not shown) [YIAD010, 1-(3-(4-(Tert-butyl)phenoxy)-2-hydroxypropyl)pyrrolidin-1-ium chloride]
Inhibition of Aβ(1–42) fibrillation (ThT fluorescence) [1]: 75.96%
Decrease of fibrillar Aβ(1–42) aggregates (ThT fluorescence) [3]: 83.56%
EC50 [3]: 138 µM
melting point: 139.9 to 140.4 °C

Papp at 4 h, 50 μM [4]: 50.9 ×10⁻⁶ cm/s
SMILES: CC(=O)[C@H]1CC[C@H]2[C@@H]3CCC4=CC(=O)CC[C@]4(C)[C@H]3CC[C@]12C [progesterone, reference compound]

Effective permeability coefficient Pe ([4]; 4 h, 50 μM): 0 10^−6 cm/s
SMILES: CNC(=C[N+](=O)[O-])NCCSCc1ccc(CN(C)C)o1 [ranitidine, reference compound]
